The values that follow come from US20240191244A1 (priority 2020, published 2024).

SMILES strings stand for the structures.

The assay has as its system wild-type HN08 strain. It is filed as cell-based, C. siamense.

With `N#Cc1c[nH]cc1-c1cccc2c1OC(F)(F)O2` [fludioxonil], the strain growth rate result is “gradually decreases”.
